According to patent publication US9833454B2, “Difluoromethoxy compound with low bioactivation potential for the reduction of beta-amyloid production” (BRISTOL-MYERS SQUIBB COMPANY, priority 2014, dated 2017):
Several values for one entry are separate records, joined by “and”; a condition that tells them apart may be missing. Equal values may be shown once. Read-outs that look alike come from different tables or passages of the source.

Columns and labels:
[1] = target: 43 receptor and Enzyme panel (all others); test: In vitro safety: 43 receptor and enzyme panel, all others; conditions: targets other than A2A, DAT, D1, MAO A, read-out: 43 receptor and Enzyme IC50s, all others
Procedure: (§1) A range of off-target receptor binding assays and enzyme assays were carried out using conventional methods available in the art.

[2] = target: adenosine 2A receptor (Homo sapiens, UniProt P29274); test: In vitro safety: off-target receptor binding and enzyme assays, A2A; conditions: in vitro safety panel
Sequence of adenosine 2A receptor (P29274 whole entry): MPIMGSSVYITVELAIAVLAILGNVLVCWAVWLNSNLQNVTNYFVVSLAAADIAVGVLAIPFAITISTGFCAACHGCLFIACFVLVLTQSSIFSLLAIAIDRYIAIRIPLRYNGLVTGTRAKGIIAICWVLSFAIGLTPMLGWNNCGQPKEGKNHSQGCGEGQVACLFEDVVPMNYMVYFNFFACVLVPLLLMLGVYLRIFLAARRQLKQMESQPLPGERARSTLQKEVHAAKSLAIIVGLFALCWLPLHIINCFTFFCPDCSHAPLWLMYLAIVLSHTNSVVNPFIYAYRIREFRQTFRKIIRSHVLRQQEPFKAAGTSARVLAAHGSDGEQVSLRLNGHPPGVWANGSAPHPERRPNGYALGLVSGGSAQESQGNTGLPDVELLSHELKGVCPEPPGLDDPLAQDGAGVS
Procedure: as §1

[3] = target: T1, CYP3A4 (Homo sapiens, UniProt P08684); test: biochemical
T1 sequence (P08684 whole entry): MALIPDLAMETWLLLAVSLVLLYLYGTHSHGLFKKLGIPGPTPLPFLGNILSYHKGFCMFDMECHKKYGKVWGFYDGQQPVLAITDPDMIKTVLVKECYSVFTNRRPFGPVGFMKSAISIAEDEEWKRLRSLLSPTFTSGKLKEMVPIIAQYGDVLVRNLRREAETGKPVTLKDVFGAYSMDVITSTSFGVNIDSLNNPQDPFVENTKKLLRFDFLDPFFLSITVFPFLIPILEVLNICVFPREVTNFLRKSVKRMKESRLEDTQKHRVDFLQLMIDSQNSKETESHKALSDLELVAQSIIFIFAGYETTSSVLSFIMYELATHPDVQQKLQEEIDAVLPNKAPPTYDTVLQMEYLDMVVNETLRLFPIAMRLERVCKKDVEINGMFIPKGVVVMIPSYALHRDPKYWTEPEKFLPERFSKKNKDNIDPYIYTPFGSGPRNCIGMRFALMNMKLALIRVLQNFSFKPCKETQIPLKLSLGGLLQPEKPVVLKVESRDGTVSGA

[4] = In vitro metabolite elucidation in Aroclor-treated rat liver S9 (with NADPH and GSH); assay type: in vitro ADME
Procedure: The incubation mixtures (0.5 mL) contained N2-(3-(DIFLUOROMETHOXY)-4-(3-METHYL-1H-1,2,4-TRIAZOL-1-YL)PHENYL)-7-(4-FLUOROPHENYL)-N4,5,5-[…]-6,7-DIHYDRO-5H-CYCLOPENTA[D]PYRIMIDINE-2,4-DIAMINE (10 μM), liver S9 fractions from Aroclor 1254-treated rats (Molecular Toxicology, Boone, N.C.) (2 mg protein/mL), and glutathione (GSH, 5 mM) in a 100 mM potassium phosphate buffer (pH 7.4). The final concentration of acetonitrile in the S9 fraction incubations was 0.5% (v/v). The reactions were initiated by adding β-nicotinamide adenine dinucleotide 2′-phosphate reduced tetrasodium salt (NADPH, final concentration as 1 mM) and the incubations were carried out at 37° C. […] The filtrate was collected in a 96-well plate and evaporated to approximately 25% of the original volume under nitrogen gas, and the remaining aqueous phase was analyzed using high-performance liquid chromatography with ultraviolet (UV) spectroscopic and mass spectrometric detection (LC-UV/MS) under the conditions described in Section 1.2.
Bioanalytical methods were as follows: The LC-UV/MS system consisted of a Waters Acquity binary solvent manager, a sample manager, a photodiode array (PDA) detector, and a Xevo Q-TOF mass spectrometer (Waters Corporation, Milford, Mass.). […] Column effluent was analyzed in-line using a PDA detector followed by the mass spectrometer. […]

[5] = target: T1, CYP3A4; test: HLM CYP3A4 Inactivation Assay; assay type: in vitro ADME
Procedure: Human liver microsomes pooled from 150 donors (UltraPool 150), [^13C3]1′-hydroxymidazolam and [^2H7]6β-hydroxytestosterone were purchased from BD Gentest (Woburn, Mass.), midazolam and testosterone from Sigma-Aldrich (Saint Louis, Mo.), NADPH from AKRON Biotech (Boca Raton, Fla.).
After a 2-minute incubation at 37° C., the secondary reactions were terminated by the addition of a quench buffer (1:1, v/v), containing an internal standard (stable-isotope-labeled metabolite of the probe substrate).
Reaction buffer (in both primary and secondary reactions) consisted of 100 mM potassium phosphate, pH 7.4, 2 mM MgCl2, and 1 mM NADPH. Quench buffer was a mixture of water, acetonitrile, and formic acid (94:5:1, v/v/v) containing one of the internal standards (0.2 μM [^13C3]1′-hydroxymidazolam or 3 μM [^2H7]6β-hydroxytestosterone).
Quenched reaction mixtures (in 96-well microplates) were initially frozen at −80° C. and then, before LC-MS/MS analysis, the samples were thawed at room temperature and centrifuged at ˜2500×g for 10 minutes to precipitate denatured microsomal protein. Supernatants were used to quantify the amount of a metabolite of the probe substrate in the reaction samples.
The LC-MS/MS system consisted of a Thermo Cohesive ARIA LX-2 (Waltham, Mass.) with Shimadzu LC-20AD XR pumps (Kyoto, Japan) for gradient elution and an AB Sciex API 4500 triple-quadrupole mass spectrometer (Foster City, Calif.), using Turbo V™ source for sample analysis. Samples were injected using dual-arm CTC HTS PAL autosampler from LEAP Technologies (Carrboro, N.C.
To quantify 1′-hydroxymidazolam, the mass spectrometer was operated under positive ionization mode and SRM used for analysis. […] The dwell time was 75 ms for each transition. The declustering potential was 70 V and the collision energy 38 eV. A Kinetex 2.6 μm XB-C18 100A, 50 mm×2.1 mm HPLC column from Phenomenex (Torrance, Calif.) and the injection volume was 10 μL. Mobile phase A was water with 0.2% formic acid, and mobile phase B was acetonitrile with 0.2% formic acid. […] The total cycle time was 90 seconds per injection.
To quantify 6β-hydroxytestosterone, the mass spectrometer was operated under positive ionization mode and SRM used for analysis. […]
The signal intensity of the metabolite in MS/MS analysis was normalized to the signal of internal standard; thus signal intensity was expressed as signal ratio. […] Percent CYP3A4 enzyme activity remaining after preincubation was calculated as: % Activity(Remaining)=(S/T)*100 Where: S=sample signal, T=solvent control signal,
The kinetic parameters (kinact and KI) were then calculated by fitting the kobs values plotted against inhibitor concentrations ([I]) using the non-linear regression model (Michaelis-Menten equation) in the GRAPH PAD PRISM v.5.0 software (San Diego, Calif.):

[6] = target: CYP2D6 (Homo sapiens, UniProt P10635); test: Inhibition of recombinant CYP enzymes (rCYP), CYP2D6; assay type: in vitro ADME; conditions: average of two experiments, read-out: rCYP IC50 2D6
Sequence of CYP2D6 (P10635 whole entry): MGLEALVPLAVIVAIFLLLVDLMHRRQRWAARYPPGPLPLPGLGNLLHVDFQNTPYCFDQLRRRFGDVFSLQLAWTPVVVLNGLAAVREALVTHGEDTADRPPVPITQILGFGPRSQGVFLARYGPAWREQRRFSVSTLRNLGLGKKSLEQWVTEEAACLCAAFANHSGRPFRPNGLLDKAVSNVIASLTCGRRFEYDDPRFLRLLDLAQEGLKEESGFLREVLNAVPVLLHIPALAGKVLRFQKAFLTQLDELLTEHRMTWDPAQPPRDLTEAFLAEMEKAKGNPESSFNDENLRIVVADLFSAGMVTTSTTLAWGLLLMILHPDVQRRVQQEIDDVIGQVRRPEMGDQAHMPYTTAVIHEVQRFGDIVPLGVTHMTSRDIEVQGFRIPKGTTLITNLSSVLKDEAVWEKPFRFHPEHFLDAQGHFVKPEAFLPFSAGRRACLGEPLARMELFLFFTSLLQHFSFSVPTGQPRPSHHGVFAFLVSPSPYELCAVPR

[7] = target: dopamine transporter (Homo sapiens, UniProt Q01959); test: In vitro safety: off-target receptor binding and enzyme assays, DAT; conditions: in vitro safety panel
Sequence of dopamine transporter (Q01959 whole entry): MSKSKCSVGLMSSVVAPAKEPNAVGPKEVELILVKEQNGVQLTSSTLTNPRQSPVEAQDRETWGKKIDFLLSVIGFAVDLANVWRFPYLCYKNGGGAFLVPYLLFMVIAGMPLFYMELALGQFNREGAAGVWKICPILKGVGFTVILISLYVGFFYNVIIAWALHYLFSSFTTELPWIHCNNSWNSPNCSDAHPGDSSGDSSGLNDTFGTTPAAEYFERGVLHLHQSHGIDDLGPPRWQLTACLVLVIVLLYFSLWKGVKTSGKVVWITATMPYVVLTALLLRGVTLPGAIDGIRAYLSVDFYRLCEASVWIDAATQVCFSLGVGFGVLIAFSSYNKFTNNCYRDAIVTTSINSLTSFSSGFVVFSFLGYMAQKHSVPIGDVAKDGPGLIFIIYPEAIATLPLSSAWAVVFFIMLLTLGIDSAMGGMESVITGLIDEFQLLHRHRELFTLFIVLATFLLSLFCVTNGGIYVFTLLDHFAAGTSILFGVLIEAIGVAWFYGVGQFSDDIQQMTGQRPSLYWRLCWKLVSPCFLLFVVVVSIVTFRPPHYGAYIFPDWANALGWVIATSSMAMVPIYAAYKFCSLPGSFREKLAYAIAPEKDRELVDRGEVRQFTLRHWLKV
Procedure: as §1

[8] = target: T2, CYP1A2 (Homo sapiens, UniProt P05177); test: Inhibition of CYP enzymes in human liver microsomes (HLM), CYP1A2
T2 sequence (P05177 1-516): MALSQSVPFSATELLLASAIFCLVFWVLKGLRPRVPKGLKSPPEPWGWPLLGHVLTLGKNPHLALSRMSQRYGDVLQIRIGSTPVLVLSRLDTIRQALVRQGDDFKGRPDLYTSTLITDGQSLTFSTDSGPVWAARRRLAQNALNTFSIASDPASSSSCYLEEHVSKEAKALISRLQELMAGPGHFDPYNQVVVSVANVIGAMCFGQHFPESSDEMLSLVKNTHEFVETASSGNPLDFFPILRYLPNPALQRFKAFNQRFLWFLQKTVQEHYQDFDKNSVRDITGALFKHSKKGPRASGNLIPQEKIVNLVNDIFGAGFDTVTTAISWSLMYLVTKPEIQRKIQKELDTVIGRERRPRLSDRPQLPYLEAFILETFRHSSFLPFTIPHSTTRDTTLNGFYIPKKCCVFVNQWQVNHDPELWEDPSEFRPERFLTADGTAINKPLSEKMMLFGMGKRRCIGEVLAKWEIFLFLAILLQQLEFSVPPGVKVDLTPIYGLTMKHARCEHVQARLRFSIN

[9] = HLM, all tested concentrations 0.31-20 μM, up to 25 min

## CNc1nc(Nc2ccc(-n3cnc(C)n3)c(OC(F)F)c2)nc2c1C(C)(C)CC2c1ccc(F)cc1 (single isomer, unassigned) [Enantiomer 1, N2-(3-(difluoromethoxy)-4-(3-methyl-1H-1,2,4-triazol-1-yl)phenyl)-7-(4-fluorophenyl)-N4,5,5-trimethyl-6,7-dihydro-5H-cyclopenta[d]pyrimidine-2,4-diamine]
[1]
  IC50: > 10 µM
[2]
  IC50: 2 µM
[3]
  IC50: ~40 µM and 12 µM and 15.1 µM and 4.5 µM and ~12 µM
[4]; 10 μM, 30-minute incubation with NADPH and GSH, UV 300 nm
  Estimated Percent (%) of The Original Parent Level (P) Based on UV Peak Areas: 76%
[4]; NADPH and GSH
  GSH Adducts: No GSH conjugates were detected
[5]; HLM CYP3A4 inactivation
  KI; Kinact: Inactivation rates below the limit of reliable
[5]; [9]
  apparent rates of inactivation (kobs) with midazolam: < 0.003 min⁻¹
  apparent rates of inactivation (kobs) with testosterone: < 0.006 min⁻¹
[5]; HLM, midazolam and testosterone probes
  mechanism-based inhibition of CYP3A4: not a mechanism-based inhibitor of CYP3A4
[6]
  IC50: > 20 µM
[7]
  IC50: 8 to 10 µM
[8]
  IC50: > 40 µM
[8]; HLM, IC50 shift 0 vs 30 min preincubation (TDI ratio)
  IC50 Ratio 1A2: 1.0
[8]; read-out: IC50-30 min 1A2, HLM, 30 min preincubation with NADPH
  IC50: > 40 µM
